Biological target: T1, CRTh2 receptor (Homo sapiens, UniProt Q9Y5Y4)
T1 construct: expressed in transfected cells; host or cells: CHO.K1 (Chinese Hamster Ovary) cells, line CHO.K1-CRTh2
T1 sequence (Q9Y5Y4 1-395): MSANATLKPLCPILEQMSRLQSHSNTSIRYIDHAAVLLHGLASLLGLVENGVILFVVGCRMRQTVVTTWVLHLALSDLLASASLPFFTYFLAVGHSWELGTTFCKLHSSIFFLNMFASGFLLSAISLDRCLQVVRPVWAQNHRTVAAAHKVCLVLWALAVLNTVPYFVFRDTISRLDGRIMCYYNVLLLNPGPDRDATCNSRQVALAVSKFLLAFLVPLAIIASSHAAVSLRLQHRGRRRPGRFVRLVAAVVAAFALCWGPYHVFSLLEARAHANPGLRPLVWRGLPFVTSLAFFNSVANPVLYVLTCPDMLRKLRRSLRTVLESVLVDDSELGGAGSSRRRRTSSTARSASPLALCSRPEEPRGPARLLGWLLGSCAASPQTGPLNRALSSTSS
Test: Filtration binding assay: competition with [3H]-PGD2 on CHO.K1-CRTh2 membranes (called SPA binding assay)
Conditions: [3H]-PGD2 2.5 nM
Method: Filtration Binding Assay Protocol
The binding of CRTh2 antagonists is determined using membranes prepared from human CRTh2-expressing Chinese Hamster Ovary cells (CHO.K1-CRTh2). To produce cell membranes CHO.K1-CRTh2 cells cultured in roller bottles are harvested using cell dissociation buffer (Invitrogen). The cells are pelleted by centrifugation (167 g, 5 min). […] At 4° C. cells are homogenized using a Polytron® (IKA Ultra Turrax T25) for 5 bursts of 1 second.
The binding of [^3H]-PGD2 (157 Ci/mmol) to CHO.K1-CRTh2 membranes is determined in the absence (total binding) and presence (non-specific binding) of unlabelled PGD2 (1 μM). Subtraction of the cpm (counts per minute) of [^3H]-PGD2 binding in presence of excess unlabelled PGD2 from that observed in the absence of excess unlabelled PGD2 is defined as specific binding. […]
The plates are incubated at room temperature on a shaker for 1 hour, and then harvested (Tomtec Harvester 9600) onto GF/C filter plates using wash buffer (10 mM HEPES-KOH, pH 7.4). […] Plates are then counted using a Packard Top Count instrument, Plates are then read on the Packard Topcount with the 3H Scintillation program (1 min per well). […]
Ki values are determined using Sigma Plot™ software, using the Cheng-Prussoff equation. […]

`Cc1c(CC(=O)O)c2cccnc2n1Cc1ccc(S(C)(=O)=O)cc1C(F)(F)F` [Example 95, [1-(4-Methanesulfonyl-2-trifluoromethyl-benzyl)-2-methyl-1H-pyrrolo[2,3-b]pyridin-3-yl]-acetic acid] gave a Ki of 4 nM.

Reference: patent publication US9169251B2, “Pyrrolopyridine derivatives and their use as CRTH2 antagonists” (Novartis AG, priority 2004, dated 2015)
